Test system: plasma cells (target cells, CD138+; U-266 or NCI-H929)
Test: ICNP-based ADCC assay in microwells, NK cells against plasma cells / U-266 cells under anti-CD38 stimulation, time-lapse PI readout
Assay type: cell-based
Text: EDTA bone marrow samples were collected from 13 patients with multiple myeloma (MM, 7 de novo and 6 relapses). 8 primary samples were processed through density centrifugation (Ficoll-Pacque; Merck) in order to obtain mononuclear cells while preserving the original composition of the effector (E) and target (T) cells, i.e., NK and plasma cells, respectively. 5 samples were processed with CD138 Antibody coupled to magnetic beads (Miltenyi Biotec) to obtain a population of white blood cells (WBC), a population which comprises NK cells and is depleted of plasma cells.
The resulting cells were co-cultured with U-266 or NCI-H929 cell lines as target cells. […]
The cells from primary or co-culture samples were seeded in 96-well plates, with a final concentration of 2×10^5 cells/well, with variable E:T ratios. […] Each experiment was analyzed by time lapse in fluorescence microscopy for up to 12 hours.
The images for said plurality of microwells are then acquired and, with a detection algorithm, the areas of interest, where each area of interest corresponds to a single cell, for each of said areas of interest, properties which comprise localization, the intensity of certain markers in each fluorescence channel, the cell area, the position of the center of gravity and the morphology are then measured. […]

Daratumumab
plasma cell death with respect to plasma cell - NK cell distance (10 μg/mL, 1,200 microwells, plasma cells in contact with NK cells, decreases as distance increases, FIG. 11E): maximum
death rate of the plasma cells belonging to pattern 2 (spontaneous death or direct effect of the antibody) (10 μg/mL, pattern 2 microwells (only plasma cells, no NK)): 10.86%

Source: patent US20220373536A1, “HIGH-CONTENT ANALYSIS METHOD” (priority 2019, published 2022)
